The results in this text go back to patent US10308608B2, “Histone deacetylase inhibitors” (BIOMARIN PHARMACEUTICAL INC., priority 2015, dated 2019).

Structures can show the parent of a compound that is named as a salt.

The first series relates to Frataxin (FXN) mRNA. Put plainly: Effect of HDAC inhibitors on frataxin (FXN) mRNA expression, qRT-PCR in compound-treated iPSC derived neuronal cells. It counts as cell-based. The following applies: compound concentration of 0.625 μM, 24 h incubation, dihydrochloride, 0.625 µM. How it is done:
Effect of HDAC Inhibitors on Frataxin (FXN) mRNA Expression
Method: mRNA quantification of compound-treated iPSC derived neuronal cells Neuronal stem cells were cultured in Neurobasal A medium (Life technologies #10888022) supplemented with N2, B27 (Life technologies #17502-048 and #17504-044), L-glutamine (Life technologies #25030081), supplemented with 20 ng/ml EGF (R&D Systems #236-EG) and 20 ng/ml bFGF (BioPioneer # HRP-0011). Neuronal differentiation was initiated by removing growth factors and culturing cells in Neurobasal A with N2 and B27. Cells were allowed to differentiate for 16 days. HDAC inhibitory compound was then added and incubate for 24 h. RNA isolation was performed using the RNeasy Plus mini kit (QIAgen #74134) using a QIAcube instrument per manufacturer's instructions. qRT-PCR was performed using qScript One-Step SYBR Green qRT-PCR Kit (Quanta Biosciences 170-8893BR) with the following conditions: 20 minutes at 50° C., 5 minutes at 95° C., and then 40 cycles of 20 seconds at 95° C., 20 seconds at 55° C., 30 seconds at 72° C. The primer sequences to detect expression of FXN were: 5′-[…]-3′ and 5′-[…]-3′.
The data for the following compounds, for FXN mRNA fold induction at a compound concentration of 0.625 μM are shown in Table 1, where A<1, 1<B<2, 2<C<3, 3<D<5, E>5.
Background: In qPCR the cycle at which signal appears reflects the starting amount.
Turning to `Nc1ccccc1NC(=O)c1ccc(OC2CCCN(CC3CCCCC3)CC2)cc1` (single isomer, unassigned) [Compound 40B, N-(2-aminophenyl)-4-((1-(cyclohexylmethyl)azepan-4-yl)oxy)benzamide dihydrochloride], the “FXN mRNA fold induction” value is on record as “C (2<C<3)”.

The series is the same for the next values; noted with them: iPSC, 24 h, compound concentration of 0.625 μM, 24 h incubation, read-out: FXN mRNA fold induction.
Turning to `Nc1ccccc1NC(=O)c1ccc(OC2CCCN(CC3CC3)CC2)cc1` (centres unmarked) [Compound 38, N-(2-aminophenyl)-4-((1-(cyclopropylmethyl)azepan-4-yl)oxy)benzamide dihydrochloride], the fold induction at 0.625 µM fell in the range of 2 to 3.

With `Nc1ccccc1NC(=O)c1ccc(OC2CN(CC3CC3)C2)cc1` [Compound 46, N-(2-aminophenyl)-4-((1-(cyclopropylmethyl)azetidin-3-yl)oxy)benzamide dihydrochloride], the fold induction at 0.625 µM lay in the range of 1 to 2. On the same count and under the same terms, with `CC(C)(O)CN1CC[C@H](Oc2ccc(C(=O)Nc3ccccc3N)cc2)C1` [Compound 52, (S)-N-(2-aminophenyl)-4-((1-(2-hydroxy-2-methylpropyl)pyrrolidin-3-yl)oxy)benzamide dihydrochloride] the figure was 1 to 2; with `CC(C)(O)CN1CCC(Nc2ccc(C(=O)Nc3ccccc3N)cc2)CC1(C)C` (centres unmarked) [Compound 369, N-(2-aminophenyl)-4-((1-(2-hydroxy-2-methylpropyl)-2,2-dimethylpiperidin-4-yl)amino)benzamide], 1 to 2.

On to `Nc1ccccc1NC(=O)c1ccc(NC2CCCNCC2)cc1` (centres unmarked) [Compound 78, N-(2-aminophenyl)-4-(azepan-4-ylamino)benzamide tris(2,2,2-trifluoroacetate)], for which the fold induction at 0.625 µM is 2 to 3.

Regarding `CC(C)(O)CN1CCCC(Nc2ccc(C(=O)Nc3ccccc3N)cc2)CC1` (centres unmarked) [Compound 81, N-(2-aminophenyl)-4-((1-(2-hydroxy-2-methylpropyl)azepan-4-yl)amino)benzamide trihydrochloride], the fold induction at 0.625 µM is 1 to 2. Still for that read-out and setting: then `Nc1ccccc1NC(=O)c1ccc(NC2CCNCC2)cc1` [Compound 110, dihydrochloride], with 2 to 3; and `CN1CC[C@H](Oc2ccc(C(=O)Nc3ccccc3N)cc2)C1` [Compound 50, (S)-N-(2-aminophenyl)-4-((1-methylpyrrolidin-3-yl)oxy)benzamide dihydrochloride], with 2 to 3.

In the case of `CC(C)(O)CN1CCC(Nc2ccc(C(=O)Nc3ccccc3N)cc2)CC1` [Compound 4, N-(2-aminophenyl)-4-((1-(2-hydroxy-2-methylpropyl)piperidin-4-yl)amino)benzamide], the fold induction at 0.625 µM lay within 1 to 2. On to `CC(C)(C)CN1CC(Oc2ccc(C(=O)Nc3ccccc3N)cc2)C1` [Compound 45, dihydrochloride], for which the fold induction at 0.625 µM fell in the range of 1 to 2.

With `Nc1ccccc1NC(=O)c1ccc(NC2CN(CC3CCCCC3)C2)cc1` [Compound 93, N-(2-aminophenyl)-4-((1-(cyclohexylmethyl)azetidin-3-yl)amino)benzamide], the fold induction at 0.625 µM lay within 2 to 3.

As for `Nc1ccccc1NC(=O)c1ccc(O[C@H]2CCN(C3COC3)C2)cc1` [Compound 128, (S)-N-(2-aminophenyl)-4-((1-(oxetan-3-yl)pyrrolidin-3-yl)oxy)benzamide], the fold induction at 0.625 µM lay within 1 to 2. Same read-out and setting: with `CC(C)CN1CC[C@H](Oc2ccc(C(=O)Nc3ccccc3N)cc2)C1` [Compound 51, (S)-N-(2-aminophenyl)-4-((1-isobutylpyrrolidin-3-yl)oxy)benzamide dihydrochloride] the figure was 1 to 2; with `Nc1ccccc1NC(=O)c1ccc(NC2CN(CC3CC3)C2)cc1` [Compound 91, N-(2-aminophenyl)-4-((1-(cyclopropylmethyl)azetidin-3-yl)amino)benzamide trihydrochloride], 1 to 2; with `Nc1ccccc1NC(=O)c1ccc(O[C@@H]2CCN(C3CC3)C2)cc1` [Compound 129, (R)-N-(2-aminophenyl)-4-((1-cyclopropylpyrrolidin-3-yl)oxy)benzamide], 1 to 2. On the same count and under the same terms, with `Nc1ccccc1NC(=O)c1ccc(O[C@@H]2CCNC2)cc1` [Compound 57, (R)-N-(2-aminophenyl)-4-(pyrrolidin-3-yloxy)benzamide hydrochloride] the figure was 2 to 3; with `CC(=O)N1CC(Nc2ccc(C(=O)Nc3ccccc3N)cc2)C1` [Compound 170, 4-((1-acetylazetidin-3-yl)amino)-N-(2-aminophenyl)benzamide], 1 to 2. The same measure, in the same setting: then `CC(C)CN1CCCC(Oc2ccc(C(=O)Nc3ccccc3N)cc2)CC1` (centres unmarked) [Compound 35, N-(2-aminophenyl)-4-((1-isobutylazepan-4-yl)oxy)benzamide dihydrochloride], with 2 to 3; and `Nc1ccccc1NC(=O)c1ccc(O[C@H]2CCCN(CC3CC3)CC2)cc1` [Compound 38A, (S)-N-(2-aminophenyl)-4-((1-(cyclopropylmethyl)azepan-4-yl)oxy)benzamide], with less than 1; and `Nc1ccccc1NC(=O)c1ccc(OC2CCCN(C3CC3)CC2)cc1` (centres unmarked) [Compound 123, N-(2-aminophenyl)-4-((1-cyclopropylazepan-4-yl)oxy)benzamide benzamide dihydrochloride], with 1 to 2. With `Nc1ccccc1NC(=O)c1ccc(NC2CNC2)cc1` [Compound 86, N-(2-aminophenyl)-4-(azetidin-3-ylamino)benzamide trihydrochloride], the fold induction at 0.625 µM lay within 2 to 3. On the same count and under the same terms, with `Nc1ccccc1NC(=O)c1ccc(N[C@H]2CCN(C3CC3)C2)cc1` [Compound 136, (S)-N-(2-aminophenyl)-4-((1-cyclopropylpyrrolidin-3-yl)amino)benzamide] the figure was 1 to 2; with `CC(C)(O)CN1CC(Nc2ccc(C(=O)Nc3ccccc3N)cc2)C1` [Compound 89, N-(2-aminophenyl)-4-((1-(2-hydroxy-2-methylpropyl)azetidin-3-yl)amino)benzamide], 1 to 2. Same read-out and setting: with `CN1CC(Nc2ccc(C(=O)Nc3ccccc3N)cc2)C1` [Compound 87, N-(2-aminophenyl)-4-((1-methylazetidin-3-yl)amino)benzamide tris(2,2,2-trifluoroacetate)] the figure was 2 to 3; with `CC1(CN2CCC(Nc3ccc(C(=O)Nc4ccccc4N)cc3)CC2)CC1` [Compound 113, N-(2-aminophenyl)-4-((1-((1-methylcyclopropyl)methyl)piperidin-4-yl)amino)benzamide trihydrochloride], 2 to 3. Same read-out and setting: then `CC1(CN2CC[C@@H](Nc3ccc(C(=O)Nc4ccccc4N)cc3)C2)CC1` [Compound 108, (R)-N-(2-aminophenyl)-4-((1-((1-methylcyclopropyl)methyl)pyrrolidin-3-yl)amino)benzamide], with 2 to 3; and `CC1(CN2CCCC(Oc3ccc(C(=O)Nc4ccccc4N)cc3)CC2)CC1` (centres unmarked) [Compound 39, N-(2-aminophenyl)-4-((1-((1-methylcyclopropyl)methyl)azepan-4-yl)oxy)benzamide], with 3 to 5. Regarding `Nc1ccccc1NC(=O)c1ccc(O[C@@H]2CCN(C3COC3)C2)cc1` [Compound 130, (R)-N-(2-aminophenyl)-4-((1-(oxetan-3-yl)pyrrolidin-3-yl)oxy)benzamide], the fold induction at 0.625 µM was 1 to 2. Same read-out and setting: with `Nc1ccccc1NC(=O)c1ccc(O[C@H]2CCN(C3CC3)C2)cc1` [Compound 127, (S)-N-(2-aminophenyl)-4-((1-cyclopropylpyrrolidin-3-yl)oxy)benzamide dihydrochloride] the figure was 1 to 2.

The series is the same for the next values; noted with them: iPSC, 24 h, read-out: FXN mRNA fold induction, compound concentration of 0.625 μM, 24 h incubation.
For the compound `CCN(c1ccc(C(=O)Nc2ccccc2N)cc1)C1CCN(CC(C)(C)O)CC1` [Compound 27, N-(2-aminophenyl)-4-(ethyl(1-(2-hydroxy-2-methylpropyl)piperidin-4-yl)amino)benzamide Trihydrochloride], the fold induction at 0.625 µM lay in the range of 2 to 3.

On to `Nc1ccccc1NC(=O)c1ccc(NC2CC3CCC(C2)N3)cc1` (centres unmarked) [Compound 115, 4-((8-azabicyclo[3.2.1]octan-3-yl)amino)-N-(2-aminophenyl)benzamide], for which the fold induction at 0.625 µM was in the range of 1 to 2. Same read-out and setting: with `CC(C)(O)CN1C2CCC1CC(Nc1ccc(C(=O)Nc3ccccc3N)cc1)C2` (centres unmarked) [Compound 118, N-(2-aminophenyl)-4-((8-(2-hydroxy-2-methylpropyl)-8-azabicyclo[3.2.1]octan-3-yl)amino)benzamide] the figure was 2 to 3; with `Nc1ccccc1NC(=O)c1ccc(OC2CC3CCC(C2)N3CC2CCCCC2)cc1` (centres unmarked) [Compound 77, N-(2-aminophenyl)-4-((8-(cyclohexylmethyl)-8-azabicyclo[3.2.1]octan-3-yl)oxy)benzamide dihydrochloride], 1 to 2. Consider `CN(c1ccc(C(=O)Nc2ccccc2N)cc1)C1CCN(CC(C)(C)O)CC1` [Compound 6, N-(2-aminophenyl)-4-((1-(2-hydroxy-2-methylpropyl)piperidin-4-yl)(methyl)amino) benzamide], for which the fold induction at 0.625 µM fell in the range of 2 to 3.
